Reference: patent publication US20100092526A1, “NANOEMULSION THERAPEUTIC COMPOSITIONS AND METHODS OF USING THE SAME” (NanoBio Corporation, priority 2008, published 2010)
≈ marks a conversion by molar mass, not a printed value. Where two headings read alike, the source gives them in different places.

What was measured:
Burkholderia cepacia = assay: MIC/MBC of nanoemulsions against gram-negative isolates (CLSI, alamar blue); assay type: cell-based; details: Burkholderia cepacia (n = 5), nanoemulsions in the presence of 5 mM EDTA
Acinetobacter baumannii [1] = assay: MIC/MBC against clinical isolates (CLSI, alamar blue); details: Acinetobacter baumannii
Escherichia coli = assay: MIC/MBC of nanoemulsions against gram-negative isolates (CLSI, alamar blue); assay type: cell-based; details: Escherichia coli (n = 5)
Klebsiella pneumoniae = assay: as above; assay type: cell-based; details: Klebsiella pneumoniae (n = 5)
Pseudomonas aeruginosa [2] = assay: MIC/MBC against CF isolates (CLSI, alamar blue); details: for MBC / MIC: Pseudomonas aeruginosa
Burkholderia cenocepacia = assay: MIC/MBC against CF isolates (CLSI, alamar blue); details: Burkholderia cenocepacia
Acinetobacter baumannii [3] = assay: MIC/MBC of nanoemulsions against gram-negative isolates (CLSI, alamar blue); assay type: cell-based; details: Acinetobacter baumannii (n = 5)
Proteus mirabilis = assay: as above; assay type: cell-based; details: Proteus mirabilis (n = 5)
[4] = system: Stenotrophomonas maltophilia; assay: as above; assay type: cell-based; details: Stenotrophomonas maltophilia (n = 5); nanoemulsions in the presence of 5 mM EDTA
Pseudomonas aeruginosa [5] = assay: as above; assay type: cell-based; details: Pseudomonas aeruginosa (n = 5)
[6] = system: P. aeruginosa, B. cenocepacia, A. baumannii and S. maltophilia; assay: MIC/MBC against all strains of Example 8; details: read-out: MBC90, against all strains
[7] = nanoemulsions in the presence of 5 mM EDTA

SMILES: C[C@@H](O)[C@H]1C(=O)N2C(C(=O)O)=C(SCCN=CN)C[C@H]12 [Imipenem]
- MIC50 (Burkholderia cepacia): 8 µg/mL
- MIC Range (Burkholderia cepacia; in µg/mL): 4-8
- MIC (Acinetobacter baumannii [1]): 0.125 µg/mL (≈ 0.418 µM)
- MBC (Acinetobacter baumannii [1]; Acinetobacter isolate NB31): 1 µg/mL (≈ 3.34 µM)
- MIC (Acinetobacter baumannii [1]; Acinetobacter isolate NB31): 1 µg/mL (≈ 3.34 µM)
- MBC (Acinetobacter baumannii [1]; Acinetobacter isolate NB35): 8 µg/mL (≈ 26.7 µM)
- MIC (Acinetobacter baumannii [1]; Acinetobacter isolate NB35): 8 µg/mL (≈ 26.7 µM)
- MBC (Acinetobacter baumannii [1]; Acinetobacter isolate NB36): 0.125 µg/mL (≈ 0.418 µM)
- MBC (Acinetobacter baumannii [1]; Acinetobacter isolate NB37): 8 µg/mL (≈ 26.7 µM)
- MBC (Acinetobacter baumannii [1]; Acinetobacter isolate NB39): 2 µg/mL (≈ 6.68 µM)
- MIC (Acinetobacter baumannii [1]; Acinetobacter isolate NB39): 2 µg/mL (≈ 6.68 µM)
- MIC (Acinetobacter baumannii [1]; Acinetobacter isolate NB40): 2 µg/mL (≈ 6.68 µM)
- MBC (Acinetobacter baumannii [1]; read-out: MBC 50, 10 Acinetobacter isolates): 8 µg/mL (≈ 26.7 µM)
- % resistant (Escherichia coli): 0.0%
- % susceptible (Escherichia coli): 100.0%
- MIC50 (Escherichia coli; [7]): 0.25 µg/mL
- MIC Range (Escherichia coli; [7]): <=0.12-0.5 ^
- % resistant (Klebsiella pneumoniae): 0.0%
- % susceptible (Klebsiella pneumoniae): 100.0%
- MIC50 (Klebsiella pneumoniae; [7]): 0.25 µg/mL
- MIC Range (Klebsiella pneumoniae; [7]): <=0.12-0.25 ^
- MBC 90 (Pseudomonas aeruginosa [2]; 20 CF Pseudomonas isolates): >32 µg/mL
- MBC (Pseudomonas aeruginosa [2]; CF Pseudomonas isolate NB1): 8 µg/mL (≈ 26.7 µM)
- MIC (Pseudomonas aeruginosa [2]; CF Pseudomonas isolate NB1): 1 µg/mL (≈ 3.34 µM)
- MBC (Pseudomonas aeruginosa [2]; CF Pseudomonas isolate NB2): 2 µg/mL (≈ 6.68 µM)
- MIC (Pseudomonas aeruginosa [2]; CF Pseudomonas isolate NB2): 2 µg/mL (≈ 6.68 µM)
- MIC (Pseudomonas aeruginosa [2]; CF Pseudomonas isolate NB3): 2 µg/mL (≈ 6.68 µM)
- MBC (Pseudomonas aeruginosa [2]; CF Pseudomonas isolate NB4): 8 µg/mL (≈ 26.7 µM)
- MIC (Pseudomonas aeruginosa [2]; CF Pseudomonas isolate NB5): 2 µg/mL (≈ 6.68 µM)
- MBC (Pseudomonas aeruginosa [2]; CF Pseudomonas isolate NB6): 2 µg/mL (≈ 6.68 µM)
- MIC (Pseudomonas aeruginosa [2]; CF Pseudomonas isolate NB6): 1 µg/mL (≈ 3.34 µM)
- MBC (Pseudomonas aeruginosa [2]; CF Pseudomonas isolate NB10): 8 µg/mL (≈ 26.7 µM)
- MBC (Pseudomonas aeruginosa [2]; CF Pseudomonas isolate NB11): 8 µg/mL (≈ 26.7 µM)
- MIC (Pseudomonas aeruginosa [2]; CF Pseudomonas isolate NB11): 2 µg/mL (≈ 6.68 µM)
- MIC (Pseudomonas aeruginosa [2]; CF Pseudomonas isolate NB13): 8 µg/mL (≈ 26.7 µM)
- MIC (Pseudomonas aeruginosa [2]; CF Pseudomonas isolate NB15): 8 µg/mL (≈ 26.7 µM)
- MIC (Pseudomonas aeruginosa [2]; CF Pseudomonas isolate NB16): 8 µg/mL (≈ 26.7 µM)
- MIC (Pseudomonas aeruginosa [2]; CF Pseudomonas isolate NB20): 2 µg/mL (≈ 6.68 µM)
- MBC (Burkholderia cenocepacia; CF Burkholderia isolate NB28b): 0.5 µg/mL (≈ 1.67 µM)
- MIC (Burkholderia cenocepacia; CF Burkholderia isolate NB28b): 0.5 µg/mL (≈ 1.67 µM)
- MIC (Burkholderia cenocepacia; CF Burkholderia isolate NB29): 8 µg/mL (≈ 26.7 µM)
- % resistant (Acinetobacter baumannii [3]): 20.0%
- % susceptible (Acinetobacter baumannii [3]): 80.0%
- MIC50 (Acinetobacter baumannii [3]; [7]): ≤ 0.12 µg/mL
- % resistant (Proteus mirabilis): 0.0%
- % susceptible (Proteus mirabilis): 100.0%
- MIC50 (Proteus mirabilis; [7]): 1 µg/mL
- MIC Range (Proteus mirabilis; [7]): <=0.12-2 ^
- MIC50 [4]: > 8 µg/mL
- % resistant (Pseudomonas aeruginosa [5]): 20.0%
- % susceptible (Pseudomonas aeruginosa [5]): 80.0%
- MIC50 (Pseudomonas aeruginosa [5]; [7]): 1 µg/mL
- MBC [6]: > 32 µg/mL
